Active and inactive are the calls of the source. The calls are words filed in the database; no cut-off is given here.
Assays:
MOLM-13 [1] = assay: cells; conditions: Homo sapiens, MOLM-13, 72 h
Description: Antiproliferative activity against human MOLM13 cells harboring FLT3-ITD mutant measured after 72 hrs by MTT assay

[2] = molecular target: Receptor-type tyrosine-protein kinase FLT3 (Homo sapiens, UniProt P36888, ITD); assay: Binding affinity to human partial length FLT3 ITD mutant expressed in Escherichia coli measured after 1 hr by qPCR analysis
MV4-11 [3] = assay: Induction of apoptosis in human MV4-11 cells assessed as necrotic cells at 1 nM after 48 hrs by Annexin V/propidium iodide staining based flow cytometry (reference value: 0.06%); format: functional
[4] = molecular target: Receptor-type tyrosine-protein kinase FLT3 (Homo sapiens, UniProt P36888, N841I); assay: Binding affinity to human partial length FLT3 N841I mutant (V592 to Y969 residues) expressed in Escherichia coli after 1 hr by qPCR analysis
[5] = molecular target: Receptor-type tyrosine-protein kinase FLT3 (Homo sapiens) (UniProt P36888); assay: Inhibition of FLT3 autophosphorylation in human MV4-11 cells assessed as ratio of phosphorylated FLT3 to beta-actin level at 30 nM after 2 hrs by Western blot analysis relative to control; format: cell-based
MV4-11 [6] = assay: Antitumour activity against human MV4-11 cells xenografted in NOD/SCID mouse assessed as tumour growth inhibition at 10 mg/kg, po qd for 18 days measured on day 24 by caliper method; format: functional, organism-based
RS4-11 = assay: Antiproliferative activity against human RS4:11 cells harboring wild-type FLT3 measured after 72 hrs by MTT assay; format: functional, cell-based; conditions: RS4-11, 72 h
MV4-11 [7] = assay: Antitumour activity against human MV4-11 cells xenografted in po dosed NOD/SCID mouse assessed as tumour growth inhibition administered daily for 14 days; format: functional, organism-based
MOLM-13 [8] = assay: Induction of apoptosis in human MOLM13 cells assessed as late apoptotic cells at 100 nM after 48 hrs by Annexin V/propidium iodide staining based flow cytometry (reference value: 5.52%); format: functional
MV4-11 [9] = assay: Cell cycle arrest in human MV4-11 cells assessed as accumulation at S phase at 30 nM after 24 hrs by propidium iodide staining-based flow cytometric analysis (reference value: 30.12%); format: functional
MV4-11 [10] = assay: Cell cycle arrest in human MV4-11 cells assessed as accumulation at G0/G1 phase at 10 nM after 24 hrs by propidium iodide staining-based flow cytometric analysis (reference value: 48.76%); format: functional
MOLM-13 [11] = assay: Induction of apoptosis in human MOLM13 cells assessed as late apoptotic cells at 1 nM after 48 hrs by Annexin V/propidium iodide staining based flow cytometry (reference value: 5.52%); format: functional
MV4-11 [12] = assay: Induction of apoptosis in human MV4-11 cells assessed as viable cells at 1 nM after 48 hrs by Annexin V/propidium iodide staining based flow cytometry (reference value: 94.4%); format: functional; conditions: MV4-11, 48 h, read-out: Activity
MV4-11 [13] = assay: Induction of apoptosis in human MV4-11 cells assessed as viable cells at 1 uM after 48 hrs by Annexin V/propidium iodide staining based flow cytometry (reference value: 94.4%); format: functional; conditions: MV4-11, 48 h, read-out: Activity
MOLM-13 [14] = assay: Antitumour activity against human MOLM13 cells xenografted in po dosed NOD/SCID mouse assessed as tumour growth inhibition administered daily for 10 days; format: functional, organism-based
MV4-11 [15] = assay: Cell cycle arrest in human MV4-11 cells assessed as accumulation at S phase at 10 nM after 24 hrs by propidium iodide staining-based flow cytometric analysis (reference value: 30.12%); format: functional
MV4-11 [16] = assay: Induction of apoptosis in human MV4-11 cells assessed as necrotic cells at 10 uM after 48 hrs by Annexin V/propidium iodide staining based flow cytometry (reference value: 0.06%); format: functional
MV4-11 [17] = assay: Cell cycle arrest in human MV4-11 cells assessed as accumulation at G0/G1 phase at 30 nM after 24 hrs by propidium iodide staining-based flow cytometric analysis (reference value: 48.76%); format: functional
MOLM-13 [18] = assay: Antitumour activity against human MOLM13 cells xenografted in NOD/SCID mouse assessed as tumour growth inibition at 10 mg/kg, po qd for 10 days measured every two days during compound dosing by caliper method relative to control; format: functional; conditions: MOLM-13, po, read-out: TGI
[19] = Tmax in Sprague-Dawley rat at 5 mg/kg, po by LC-MS/MS analysis; format: ADME, organism-based; conditions: in vivo
[20] = molecular target: Mast/stem cell growth factor receptor Kit (Homo sapiens, UniProt P10721); assay: Inhibition of recombinant human c-Kit (544 to end residues) using poly(Glu, Tyr) 4:1 as substrate measured after 40 mins in presence of [gamma-33P]-ATP by scintillation counting analysis
[21] = molecular target: Receptor-type tyrosine-protein kinase FLT3 (Homo sapiens, UniProt P36888, K663Q); assay: Binding affinity to human partial length FLT3 K663Q mutant (V592 to Y969 residues) expressed in Escherichia coli after 1 hr by qPCR analysis
[22] = Elimination half-life in Sprague-Dawley rat at 5 mg/kg, po by LC-MS/MS analysis; format: ADME, organism-based; conditions: in vivo, read-out: beta t1/2 (converted)
MOLM-13 [23] = assay: animal or person; conditions: Mus musculus, MOLM-13, po, read-out: TGI
Description: Antitumour activity against human MOLM13 cells xenografted in NOD/SCID mouse assessed as tumour growth inibition at 3 mg/kg, po qd for 10 days measured every two days during compound dosing by caliper method relative to control

MOLM-13 [24] = assay: Induction of apoptosis in human MOLM13 cells assessed as necrotic cells at 100 nM after 48 hrs by Annexin V/propidium iodide staining based flow cytometry (reference value: 0.29%); format: functional
MV4-11 [25] = assay: Induction of apoptosis in human MV4-11 cells assessed as late apoptotic cells at 10 uM after 48 hrs by Annexin V/propidium iodide staining based flow cytometry (reference value: 2.83%); format: functional
MOLM-13 [26] = assay: Induction of apoptosis in human MOLM13 cells assessed as necrotic cells at 1 uM after 48 hrs by Annexin V/propidium iodide staining based flow cytometry (reference value: 0.29%); format: functional
[27] = Oral bioavailability in Sprague-Dawley rat at 5 mg/kg by LC-MS/MS analysis; format: ADME, organism-based; conditions: in vivo
MOLM-13 [28] = assay: Induction of apoptosis in human MOLM13 cells assessed as necrotic cells at 10 uM after 48 hrs by Annexin V/propidium iodide staining based flow cytometry (reference value: 0.29%); format: functional
MOLM-13 [29] = assay: Cell cycle arrest in human MOLM13 cells assessed as accumulation at S phase at 30 nM after 24 hrs by propidium iodide staining-based flow cytometric analysis (reference value: 41.95%); format: functional
MOLM-13 [30] = assay: Antitumour activity against human MOLM13 cells xenografted in NOD/SCID mouse assessed as tumour growth inhibition at 1 mg/kg, po qd for 10 days measured every two days during compound dosing by caliper method relative to control; format: functional; conditions: MOLM-13, po, read-out: TGI
MOLM-13 [31] = assay: Cell cycle arrest in human MOLM13 cells assessed as accumulation at G2/M phase at 3 nM after 24 hrs by propidium iodide staining-based flow cytometric analysis (reference value: 13.52%); format: functional
MOLM-13 [32] = assay: Induction of apoptosis in human MOLM13 cells assessed as viable cells at 1 uM after 48 hrs by Annexin V/propidium iodide staining based flow cytometry (reference value: 88.2%); format: functional; conditions: MOLM-13, 48 h, read-out: Activity
MV4-11 [33] = assay: Cell cycle arrest in human MV4-11 cells assessed as accumulation at G2/M phase at 3 nM after 24 hrs by propidium iodide staining-based flow cytometric analysis (reference value: 21.12%); format: functional

Mast/stem cell growth factor receptor Kit, sequence (P10721 whole entry, the tested form may be a part): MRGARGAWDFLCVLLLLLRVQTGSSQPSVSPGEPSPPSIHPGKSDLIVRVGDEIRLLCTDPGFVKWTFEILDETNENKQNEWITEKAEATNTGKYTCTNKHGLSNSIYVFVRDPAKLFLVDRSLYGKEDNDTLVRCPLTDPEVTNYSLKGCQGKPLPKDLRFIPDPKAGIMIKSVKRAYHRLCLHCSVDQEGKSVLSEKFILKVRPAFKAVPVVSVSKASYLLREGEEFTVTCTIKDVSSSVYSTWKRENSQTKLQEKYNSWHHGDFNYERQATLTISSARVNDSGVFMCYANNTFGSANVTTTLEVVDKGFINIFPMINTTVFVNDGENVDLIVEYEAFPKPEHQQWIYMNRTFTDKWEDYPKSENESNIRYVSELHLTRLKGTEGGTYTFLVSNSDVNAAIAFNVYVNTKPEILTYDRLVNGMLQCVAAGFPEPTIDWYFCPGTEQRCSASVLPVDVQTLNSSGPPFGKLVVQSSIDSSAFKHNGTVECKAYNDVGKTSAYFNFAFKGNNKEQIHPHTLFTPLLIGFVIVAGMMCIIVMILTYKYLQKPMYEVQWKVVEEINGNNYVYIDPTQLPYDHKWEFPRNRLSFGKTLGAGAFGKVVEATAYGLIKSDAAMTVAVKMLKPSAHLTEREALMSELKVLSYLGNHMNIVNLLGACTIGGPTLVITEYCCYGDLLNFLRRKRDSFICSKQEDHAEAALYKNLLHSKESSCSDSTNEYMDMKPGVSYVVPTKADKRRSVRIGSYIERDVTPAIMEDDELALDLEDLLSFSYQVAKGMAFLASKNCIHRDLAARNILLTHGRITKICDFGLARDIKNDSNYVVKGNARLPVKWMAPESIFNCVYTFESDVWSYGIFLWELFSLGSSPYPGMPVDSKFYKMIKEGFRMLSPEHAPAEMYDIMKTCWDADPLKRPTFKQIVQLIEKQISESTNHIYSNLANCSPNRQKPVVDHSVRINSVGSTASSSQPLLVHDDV

Compound: C=CCn1cc(-c2ccc(NC(=O)Nc3cc(C(C)(C)C)on3)cc2)c2c(N)ncnc21
- IC50 (MOLM-13 [1]): 0.022 nM
- Kd [2]: 20.5 nM
- Activity (MV4-11 [3]): 0.13%
- Kd [4]: 2.37 nM
- fold change (FC) [5]: 0
- TGI (MV4-11 [6]): inactive
- IC50 (RS4-11): > 1000 nM
- TGI (MV4-11 [7]): Dose-dependent effect
- Activity (MOLM-13 [8]): 21.5%
- Activity (MV4-11 [9]): 1.96%
- Activity (MV4-11 [10]): 95.74%
- Activity (MOLM-13 [11]): 8.57%
- viability at 0.001 µM (MV4-11 [12]): 92.7%
- viability at 1 µM (MV4-11 [13]): 55%
- TGI (MOLM-13 [14]): Dose-dependent effect
- Activity (MV4-11 [15]): 2.06%
- Activity (MV4-11 [16]): 2.13%
- Activity (MV4-11 [17]): 96.25%
- inhibition in vivo at 10 mg/kg (MOLM-13 [18]): 96%
- Tmax [19]: 0.75 h
- IC50 [20]: > 300 nM
- Kd [21]: 2.48 nM
- half-life [22]: 2.06 h
- inhibition in vivo at 3 mg/kg (MOLM-13 [23]): 94.5%
- Activity (MOLM-13 [24]): 0.19%
- Activity (MV4-11 [25]): 66.4%
- Activity (MOLM-13 [26]): 0.62%
- bioavailability [27]: 59.5%
- Activity (MOLM-13 [28]): 0.4%
- Activity (MOLM-13 [29]): 2.84%
- inhibition in vivo at 1 mg/kg (MOLM-13 [30]): 77.9%
- Activity (MOLM-13 [31]): 4.55%
- viability at 1 µM (MOLM-13 [32]): 29%
- Activity (MV4-11 [33]): 4.08%
